This is an account of results in paper PMC6152084, “Synthesis of New Hydrazone Derivatives for MAO Enzymes Inhibitory Activity” (Molecules : A Journal of Synthetic Chemistry and Natural …, 2017).

The target in data set [1] is T1, hMAO-A (Homo sapiens, UniProt P21397).
T1 construct: purchased Sigma-Aldrich (Steinheim, Germany)
T1 sequence (P21397 1-527): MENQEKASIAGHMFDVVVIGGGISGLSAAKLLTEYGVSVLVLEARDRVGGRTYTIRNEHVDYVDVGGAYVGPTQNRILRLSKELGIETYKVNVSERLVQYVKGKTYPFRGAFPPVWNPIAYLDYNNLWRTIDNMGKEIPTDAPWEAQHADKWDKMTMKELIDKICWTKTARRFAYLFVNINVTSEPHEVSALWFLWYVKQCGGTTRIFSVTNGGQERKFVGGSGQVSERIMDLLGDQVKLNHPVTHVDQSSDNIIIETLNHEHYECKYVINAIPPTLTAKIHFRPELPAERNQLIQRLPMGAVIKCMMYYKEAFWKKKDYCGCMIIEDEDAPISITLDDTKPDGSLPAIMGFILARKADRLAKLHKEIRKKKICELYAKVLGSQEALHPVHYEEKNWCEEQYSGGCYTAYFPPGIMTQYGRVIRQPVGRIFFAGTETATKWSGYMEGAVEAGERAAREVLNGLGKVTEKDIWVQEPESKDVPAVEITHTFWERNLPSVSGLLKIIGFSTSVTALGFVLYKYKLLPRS
Nature of the data set: MAO-A inhibition assay (in vitro fluorometric Amplex Red method). To be noted: for inhibition at 1000 µM: 10^−3 M; for inhibition at 100 µM: 10^−4 M; for inhibition at 10 µM: 10^−5 M; for inhibition at 1 µM: 10^−6 M; for inhibition at 0.1 µM: 10^−7 M; for inhibition at 0.01 µM: 10^−8 M; for inhibition at 0.001 µM: 10^−9 M; for inhibition against hMAO-A in the initial assay: first step, 10^−3 and 10^−4 M; for selectivity towards hMAO-A: versus hMAO-B. It is filed as biochemical.

Data set [2] has as its target T1, hMAO-A. Put plainly: Enzyme kinetics (Lineweaver-Burk plots, tyramine substrate). It counts as biochemical. The following applies: for type of inhibition of hMAO-A: Lineweaver-Burk plot. On the procedure: The mechanism of hMAO-A inhibition was investigated by enzyme kinetics, following a similar procedure to the MAO inhibition assay. The linear Lineweaver-Burk graphics were used to estimate the type of inhibition. […] In each case, the initial velocity measurements were gained at different substrate (tyramine) concentrations ranging from 20 μM to 0.625 μM. The Ki (intercept on the x-axis) values of compounds 2a and 2b were determined from the secondary plot of the Km/Vmax (slope) versus varying concentrations.
Based on the type of interaction with the enzyme, inhibitor binding can be classified as either reversible or irreversible. The type of inhibition can be determined by the Lineweaver-Burk plot as mixed-type, uncompetitive, competitive, or noncompetitive, which are the indicators of a reversible inhibitor [23]. It is known that in the uncompetitive type inhibition a graphic, including the parallel lines without any cross, is observed. If the lines cross neither the x- nor the y-axis at the same point the inhibition type is called mixed-type. Noncompetitive inhibition is seen if the plots intersect on the x-axis. There are different slopes and intercepts on the y-axis. On the other hand, competitive inhibition gives the opposite situation. This type of inhibition has plots with the same intercept on the y-axis but there are diverse slopes and intercepts on the x-axis, which are observed in Figure 2 and Figure 3.
The same materials were used as in the MAO inhibition assay. […] The solutions of inhibitor (20 μL/well) and enzyme were added to the flat black bottom 96-well micro test plate, and incubated at 37 °C for 30 min. After incubation period, the working solution, including various concentrations (20, 10, 5, 2.5, 1.25, and 0.625 μM) of tyramine (100 μL/well) was added. The increase of the fluorescence (Ex/Em = 535/587 nm) was recorded for 30 min. A parallel experiment was carried out without inhibitor. All processes were assayed in quadruplicate. The results were analyzed as Lineweaver-Burk plots using Microsoft Office Excel 2013. The Km/Vmax (slope) values of the Lineweaver-Burk plots were replotted versus the inhibitor concentration, and the Ki values were determined from the x-axis intercept as −Ki.

Data set [3] relates to NIH/3T3 mouse embryonic fibroblast cell line. Nature of the data set: Cytotoxicity test (MTT assay). It counts as cell-based. The following applies: for IC50: Mus musculus, NIH3T3, MTT, read-out: IC50 against NIH/3T3 cells; for cytotoxicity (in words): at effective concentration against hMAO-A. The procedure:
In cytotoxicity test by using NIH/3T3 mouse embryonic fibroblast cell line (ATCC® CRL-1658™, London, UK), firstly NIH/3T3 cells were incubated in the Dulbecco’s Modified Eagle’s Medium (DMEM, Sigma Aldrich, St. Louis, MO, USA). NIH/3T3 cells were plated on 96-well culture plates as 10,000 cells per well and were then treated with the compounds at concentrations ranging from 1000 µM to 0.316 µM (1000, 316, 100, 31.6, 10, 3.16, 1, 0.316 µM). MTT assay was performed as previously described. Dose-response curves were plotted against compound concentrations applied to determine IC50 values.

Entries after “also recorded” stand apart in the source; their conditions may differ.

The term inhibition denotes the percentage by which the read-out fell short of the control. A lower inhibition goes with a response near the control. Regarding `CN1CCN(c2ccc(C=NNc3ccccc3)cc2)CC1` [Compound 2b, 1-(4-(4-Methylpiperazine-1-yl)benzylidene)-2-phenylhydrazine], in data set [1], the IC50 turned out to be 28 ± 1 nM, the inhibition at 1000 µM came out at 93.53 ± 0.412%, the inhibition at 100 µM stood at 88.86 ± 0.214% and the inhibition at 10 µM worked out at 80.42 ± 0.47%. In data set [1], this molecule had an inhibition at 1 µM of 66.22 ± 0.54%, an inhibition at 0.1 µM of 48.2 ± 0.631%, an inhibition at 0.01 µM of 45.3 ± 0.48% and an inhibition at 0.001 µM of 38.15 ± 0.367%. Besides, in data set [1], the “inhibition against hMAO-A in the initial assay” value was “more than 50%” and the “selectivity towards hMAO-A” value is on record as “selective inhibition potency towards hMAO-A”. Further, in data set [1] (ratio of IC50 values), the “fold more active than moclobemide against hMAO-A” value turned out to be 216 fold. In addition, in data set [2], the “Vmax value of the competitive inhibition” value was determined as 79.360 ± 5.704 nmol/min/mg protein; the “type of inhibition of hMAO-A” value is “reversible and competitive”. Further, in data set [3], the IC50 is 20000 ± 1320 nM and the “cytotoxicity (in words)” value is “non-cytotoxic; also recorded: not cytotoxic”.

As usually defined, the Ki is a measure of affinity in units of concentration, obtained from inhibition or displacement. In data set [1], `CC1CCCCN1c1ccc(/C=N/Nc2ccccc2)cc1` (stereo not drawn) [Compound 2a, 1-(4-(2-Methypiperidin-1-yl)benzylidene)-2-phenylhydrazine] had an IC50 of 342 ± 15 nM, an inhibition at 1000 µM of 88.2 ± 0.821%, an inhibition at 100 µM of 84.29 ± 0.641% and an inhibition at 10 µM of 75.1 ± 0.693%. Further, in data set [1], the inhibition at 1 µM is 50.8 ± 0.582%, the inhibition at 0.1 µM came out at 34.7 ± 0.378%, at 0.01 µM the inhibition was 30.5 ± 0.542% and 0.001 µM produced 25.5 ± 0.517% inhibition. In data set [1], the “inhibition against hMAO-A in the initial assay” value is listed as “more than 50%” and the “selectivity towards hMAO-A” value is listed as “selective inhibition potency towards hMAO-A”. Further, in data set [2], the “Vmax value of the competitive inhibition” value came out at 85.517 ± 2.332 nmol/min/mg protein; the “type of inhibition of hMAO-A” value is “reversible and competitive”. The Ki in data set [2] (secondary plot of Km/Vmax (slope) versus inhibitor concentration, read-out: Ki for the inhibition of hMAO-A) was 188 nM. In addition, in data set [3], the IC50 turned out to be 930000 ± 15400 nM and the “cytotoxicity (in words)” value is recorded as “non-cytotoxic; also recorded: not cytotoxic”.
